Measured values from patent US4147778A, “Antibiotic baumycin complex and components thereof” (Zaidan Hojin Biseibutsu Kagaku Kenkyu Kai, priority 1976, dated 1979).
≈ marks a conversion by molar mass, not a printed value. Entries after “also recorded” stand apart in the source; their conditions may differ. Like-named read-outs stand apart in the source and are kept apart here.

Key:
[1] = test system: gram-positive bacteria; assay: Antimicrobial activity against gram-positive bacteria; format: cell-based
Description: (§1) The minimum inhibitory concentration of the present antibiotics as determined by the broth dilution method are shown in Table 1.

[2] = Acute toxicity, LD50 upon intraperitoneal injection; format: in vivo
Description: The LD50 values upon intraperitoneal injection of the
antibiotics of the present invention are shown in the […]

[3] = Solubility; format: physicochemical
[4] = Toxicity in experimental animal tests; format: in vivo
[5] = test system: animal tumors; assay: Inhibition of growth of animal tumors; format: in vivo; conditions: experimental animal tests
Description: (§2) For example, BDF1 mice were inoculated intraperitoneally with 1 × 10^6 L-1210 cells/mouse and 24 hrs. after inoculation the drug was intraperitoneally injected once daily for 10 days consecutively. On day 30, the % of prolongation of the survival time to control was as follows: […]

[6] = test system: mouse L-1210 leukemia; assay: Prolongation of survival time of mice inoculated with L-1210 leukemia; format: in vivo, BDF1 mice; conditions: for Prolongation of the survival time T/C: BDF1 mice, 1 × 10^6 L-1210 cells i.p., day 30; for Inhibitory effect on mouse L-1210 leukemia: in words
Description: as §2

[7] = test system: Sarcina lutea ATCC 9341; assay: Minimum inhibitory concentration, broth dilution method; format: cell-based
Description: as §1

[8] = test system: B. cereus ATCC 9634; assay: as above; format: cell-based; conditions: Bacillus cereus, ATCC9634, B. cereus ATCC 9634
Description: as §1

[9] = test system: Mycobacterium smegmatis ATCC 607; assay: as above; format: cell-based; conditions: Mycolicibacterium smegmatis, ATCC607, Mycobacterium smegmatis ATCC 607
Description: as §1

[10] = test system: Micrococcus flavs; assay: as above; format: cell-based
Description: as §1

[11] = test system: Proteus morganii; assay: as above; format: cell-based; conditions: Morganella morganii
Description: as §1

[12] = test system: Staph. aureus Smith; assay: as above; format: cell-based; conditions: Staphylococcus aureus
Description: as §1

[13] = test system: Candida tropicalis; assay: as above; format: cell-based
Description: as §1

[14] = test system: Ps. fluorescens NIHJB-254; assay: as above; format: cell-based; conditions: Pseudomonas fluorescens, NIHJB254, Ps. fluorescens NIHJB-254
Description: as §1

[15] = test system: Candida albicans IAM 4905; assay: as above; format: cell-based; conditions: IAM4905, Candida albicans IAM 4905
Description: as §1

[16] = test system: Coryne. bovis 1810; assay: as above; format: cell-based
Description: as §1

[17] = test system: B. megarterium NRRL B-938; assay: as above; format: cell-based
Description: as §1

[18] = test system: B. subtilis ATCC 6633; assay: as above; format: cell-based
Description: as §1

[19] = test system: Staph. aureus FDA209P; assay: as above; format: cell-based; conditions: Staphylococcus aureus, FDA209P
Description: as §1

[20] = test system: animal tumor systems; conditions: reported in J. Antibiotics 27:254-259 (1974) and others; cited from earlier work

For `COc1cccc2c1C(=O)c1c(O)c3c(c(O)c1C2=O)CC(O)(C(C)=O)CC3OC1CC(N)C(OC(CC(C)O)OC(C)CO)C(C)O1` (centres unmarked) [BM-A1], the Antimicrobial activity ([1]; listed as Baumycin A1) was “inhibit the growth of gram-positive bacteria; also recorded: possess antimicrobial activity, especially against gram-positive bacteria”, the LD50 [2] was 1.5 to 2.5 mg/kg and the Solubility ([3]; in acidic water, DMSO, methylcellosolve, methanol, ethanol, n-propanol, n-butanol, ethyl acetate, butyl acetate, acetone, methyl ethyl ketone, methylene chloride and chloroform) was “Soluble”. For the same molecule, the Solubility ([3]; in n-hexane, cyclohexane and petroleum ether) was “Insoluble”, the Solubility ([3]; in water) was “Insoluble” and the Toxicity [4] was “low toxicity”. The “Inhibition of growth of animal tumors / antitumor activity” value ([5]; listed as Baumycin A1) was “inhibit the growth of various animal tumors; also recorded: marked antitumor activity; also recorded: marked inhibitory action against animal malignant tumors, especially ascitic and solid tumors”, the “Prolongation of the survival time T/C” value ([6]; 0.004 mg./kg./day i.p. once daily for 10 days) was 131% and the “Prolongation of the survival time T/C” value ([6]; 0.008 mg./kg./day i.p. once daily for 10 days) was 131%. The “Prolongation of the survival time T/C” value ([6]; 0.015 mg./kg./day i.p. once daily for 10 days) was 155%, the “Prolongation of the survival time T/C” value ([6]; 0.03 mg./kg./day i.p. once daily for 10 days) was 187% and the “Prolongation of the survival time T/C” value ([6]; 0.06 mg./kg./day i.p. once daily for 10 days) was > 300%. The “Inhibitory effect on mouse L-1210 leukemia” value [6] was “marked inhibitory effects”, the Minimum inhibitory concentration ([7]; Sarcina lutea ATCC 9341) was 0.78 mg/L (≈ 1.16 µM) and the MIC [8] was 1.56 mg/L (≈ 2.32 µM). The MIC [9] was 6.25 mg/L (≈ 9.28 µM), the MIC ([10]; Micrococcus, read-out: Minimum inhibitory concentration, Micrococcus flavs) was 0.78 mg/L (≈ 1.16 µM) and the MIC [11] was > 100 mg/L. The MIC [12] was 0.78 mg/L (≈ 1.16 µM), the MIC [13] was 100 mg/L (≈ 148 µM) and the MIC [14] was > 100 mg/L. The MIC [15] was 100 mg/L (≈ 148 µM), the Minimum inhibitory concentration [16] was 1.56 mg/L (≈ 2.32 µM) and the Minimum inhibitory concentration [17] was 1.56 mg/L (≈ 2.32 µM). It also gave a Minimum inhibitory concentration ([18]; B. subtilis ATCC 6633) of 0.78 mg/L (≈ 1.16 µM) and an MIC [19] of 1.56 mg/L (≈ 2.32 µM).
For `CC(=O)[C@]1(O)Cc2c(O)c3c(c(O)c2[C@@H](O[C@H]2C[C@H](N)[C@H](O)[C@H](C)O2)C1)C(=O)c1c(O)cccc1C3=O` [carminomycin], the “Activity in animal tumor systems” value [20] is listed as “active in several animal tumor systems”.
In the case of `COc1cccc2c1C(=O)c1c(O)c3c(c(O)c1C2=O)CC(O)(C(C)=O)CC3OC1CC(N)C(OC(CC(C)O)OC(C)C(=O)O)C(C)O1` (centres unmarked) [BM-B1], the Antimicrobial activity ([1]; listed as Baumycin B1) is reported as “inhibit the growth of gram-positive bacteria; also recorded: possess antimicrobial activity, especially against gram-positive bacteria”, the LD50 ([2]; in vivo, ip, read-out: LD50) is reported as 40 to 60 mg/kg and the Solubility ([3]; in acidic water, methyl cellosolve, methanol, ethanol, n-propanol and n-butanol) is reported as “Soluble”. For the same molecule, the Solubility ([3]; in ethyl acetate, acetone, methylene chloride, chloroform, carbon tetrachloride, benzene, toluene, ethyl ether and n-hexane) was “Insoluble”, the Solubility ([3]; in water, listed as Baumycin B1) was “Insoluble” and the Toxicity [4] was “low toxicity”. For the same molecule, the “Inhibition of growth of animal tumors / antitumor activity” value ([5]; listed as Baumycin B1) was “inhibit the growth of various animal tumors; also recorded: marked antitumor activity; also recorded: marked inhibitory action against animal malignant tumors, especially ascitic and solid tumors”, the “Prolongation of the survival time T/C” value ([6]; 0.125 mg./kg./day i.p. once daily for 10 days) was 93% and the “Prolongation of the survival time T/C” value ([6]; 0.25 mg./kg./day i.p. once daily for 10 days) was 99%. The “Prolongation of the survival time T/C” value ([6]; 0.5 mg./kg./day i.p. once daily for 10 days) was 99%, the “Prolongation of the survival time T/C” value ([6]; 1 mg./kg./day i.p. once daily for 10 days) was 105% and the “Prolongation of the survival time T/C” value ([6]; 2 mg./kg./day i.p. once daily for 10 days) was 117%. For the same molecule, the “Prolongation of the survival time T/C” value ([6]; 4 mg./kg./day i.p. once daily for 10 days) was 136%, the “Prolongation of the survival time T/C” value ([6]; 6 mg./kg./day i.p. once daily for 10 days) was 165% and the “Prolongation of the survival time T/C” value ([6]; 8 mg./kg./day i.p. once daily for 10 days) was 147%. For the same molecule, the “Inhibitory effect on mouse L-1210 leukemia” value [6] was “marked inhibitory effects”, the MIC ([7]; Micrococcus luteus, ATCC9341, Sarcina lutea ATCC 9341) was 50 mg/L (≈ 72.7 µM) and the MIC [8] was 100 mg/L (≈ 145 µM). The MIC [9] was 100 mg/L (≈ 145 µM), the MIC ([10]; Micrococcus flavs, read-out: Minimum inhibitory concentration) was 50 mg/L (≈ 72.7 µM) and the MIC [11] was > 100 mg/L. The MIC [12] was 50 mg/L (≈ 72.7 µM), the MIC [13] was 100 mg/L (≈ 145 µM) and the MIC [14] was 100 mg/L (≈ 145 µM). For the same molecule, the MIC ([15]; Candida albicans) was 100 mg/L (≈ 145 µM), the MIC ([16]; Corynebacterium bovis) was 50 mg/L (≈ 72.7 µM) and the MIC [17] was 100 mg/L (≈ 145 µM). For the same molecule, the MIC ([18]; Bacillus subtilis, ATCC6633, B. subtilis ATCC 6633) was 100 mg/L (≈ 145 µM) and the MIC [19] was 50 mg/L (≈ 72.7 µM).
